Experimental data: patent US5597899A, “Tumor necrosis factor muteins” (Hoffmann-La Roche Inc., priority 1993, dated 1997)
Residue numbers refer to the chain shown, from its start. Numbers in names are those of the source.

B1: L29S-R32W-S86T: human TNFα mutein L29S-R32W-S86T (protein)
chain: VRSSSRTPSDKPVAHVVANPQAEGQLQWSNRWANALLANGVELRDNQLVVPSEGLYLIYSQVLFKGQGCPSTHVLLTHTISRIAVTYQTKVNLLSAIKSPCQRETPEGAEAKPWYEPIYLGGVFQLEKGDRLSAEINRPDYLDFAESGQVYFGIIAL
B2: R31N-R32T-S86T: human TNFα mutein R31N-R32T-S86T (protein)
chain: B1 chain with S29L, R31N, W32T
B3: D143V-F144L-A145S: human TNFα mutein D143V-F144L-A145S (protein)
chain: B1 chain with S29L, W32R, T86S, D143V, F144L, A145S
B4: R31N-R32T-N34S: human TNFα mutein R31N-R32T-N34S (protein)
chain: B1 chain with S29L, R31N, W32T, N34S, T86S

Key:
human TNFR-p55 [1] = experiment: Solid phase radioligand competition binding assay, E. coli lysates, TNFR-p55; details: for Dilution of E. coli Lysate for 50% Inhibition of 125I-TNFα Binding (ID50) TNFR-p55: 10-fold serial dilutions 10^-2 to 10^-7, < = inhibition but below 50% at 1:100, << = no measurable inhibition at 1:100; for ID50 TNFR-p55 / ID50 TNFR-p75: ratio = 1 no receptor selectivity, > 1 TNFR-p55 selectivity, < 1 TNFR-p75 selectivity
Experimental: (§1) After 20 min incubation at room temperature 50 μl of 1M MgCl2, 20 μl of 5 mg/ml DNaseI, 50 μl of 5M NaCl and 50 μl of 10% NP-40 were added and the mixture was further incubated at room temperature for 15 min. 0.5 ml of the lysate clarified by centrifugation at 13'000 rpm for 5 min was subjected to ammonium sulfate precipitation (25%-70% cut). The 70% ammonium sulfat pellet was dissolved in 0.2 ml PBS and analyzed by sodium dodecyl sulfate polyacrylamide gel electrophoresis (SDS-PAGE) to confirm presence and approximate amount of the recombinant proteins.
(§2) TNFα was labelled by the Iodogen method (Pierce Chemical Company) to a specific activity of about 10-30 μCi/μg. The volume was 100 μl/well and each lysate dilution was assayed in duplicate or triplicate. After three hours at room temperature the wells were thoroughly washed with PBS and counted in a γ-counter. The results are given in Table 2 for lysates comprising the muteins indicated therein.

human TNFR-p75 [2] = experiment: Solid phase radioligand competition binding assay, E. coli lysates, TNFR-p75; details: 10-fold serial dilutions 10^-2 to 10^-7, < = inhibition but below 50% at 1:100, << = no measurable inhibition at 1:100
Experimental: as §1, with “10 ml suspensions of E. coli cells transformed and induced as described in Examples I and II were centrifuged at 4'000 rpm for 10 min and resuspended in 0.9 ml of lysis buffer (10 mM Tris-HCl pH 8.0, 5 mM EDTA, 2 mM PMSF, 10 mM benzamidine, 200 units/ml aprotinine and 0.1 mg/ml lysozyme). After” for “After”
96 well microtiter plates were coated with recombinant human […] TNFR-p75-hγ3 and TNFR-p55-hγ3 fusion proteins (extracellular portion of the receptor fused to the Fc part of human IgG3) at a concentration of 0.3 μg/ml and 0.1 μg/ml, respectively, in phosphate buffered saline (PBS, 100 μl/well, overnight at 4° C.) [Loetscher, H. et al. J. Biol. Chem. 266, 18324-18329 (1991); Lesslauer, W. et al. Eur. J. Immunol. 21, 2883-2886 (1991)]. After blocking with blocking buffer (50 mM Tris pH 7.4, 140 mM NaCl, 5 mM EDTA, 0.02% NAN3, 1% defatted milk powder) the microtiter plate was washed with PBS and incubated in blocking buffer containing 0.1% defatted milk powder with 10 ng/ml human wild-type ^125 I-TNFα and various dilutions of E. coli lysates ranging from 10^-2 to 10^-7 (10-fold serial dilutions). TNFα was labelled by the Iodogen method (Pierce Chemical Company) to a specific activity of about 10-30 μCi/μg. The volume was 100 μl/well and each lysate dilution was assayed in duplicate or triplicate. After three hours at room temperature the wells were thoroughly washed with PBS and counted in a γ-counter. The results are given in Table 2 for lysates comprising the muteins indicated therein.

human TNFR-p55 [3] = experiment: Competitive binding of purified muteins to recombinant human TNFR-p55; details: for Decrease in Binding Affinity with Respect to Wildtype TNFR-p55: IC50 of mutein divided by IC50 of wildtype TNFα; for Mutein Concentration for 50% Inhibition of 125I-TNFα Binding (IC50) TNFR-p55: purified protein, 10 ng/ml 125I-TNFα, > = competition but below 50% at 100 μg/ml, >> = no measurable competition at 100 μg/ml
Experimental: (§3) The cells were disrupted in a French press at a pressure of 20'000 psi or by sonication in a Branson Sonifier (Model 450, 2×2minat maximal output, on ice). […] Proteins were eluted with a linear NaCl gradient (0 to 400 mM in 20 mM Tris pH 9.0) at a flow rate of 1 ml/min. 5 ml fractions were collected and analyzed for the presence of TNFα muteins by SDS-PAGE. Positive fractions were pooled, dialyzed against 20 mM 2-morpholino-ethanesulfonic acid (MES) pH 6.0 and applied to a MonoS column (HR 5/5, LKB-Pharmacia) equilibrated in 20 mM MES pH 6.0. Proteins were eluted with a linear NaCl gradient (0 to 400 mM in 20 mM MES pH 6.0) at a flow rate of 0.5 ml/min. […] After dialysis against PBS the protein concentration was determined by the BCA Protein Assay (Pierce Chemical Company) using wild-type human TNFα as a standard or by absorbance measurements at 280 nm.
as §2, with “concentration” for “lysate dilution”, “γ-counter.” for “γ-counter. The results are given in Table 2 for lysates comprising the muteins indicated therein.”

human TNFR-p75 [4] = experiment: Competitive binding of purified muteins to recombinant human TNFR-p75; details: for Decrease in Binding Affinity with Respect to Wildtype TNFR-p75: IC50 of mutein divided by IC50 of wildtype TNFα; for Mutein Concentration for 50% Inhibition of 125I-TNFα Binding (IC50) TNFR-p75: purified protein, 10 ng/ml 125I-TNFα
Experimental: as §3
as §2, with “concentration” for “lysate dilution”, “γ-counter.” for “γ-counter. The results are given in Table 2 for lysates comprising the muteins indicated therein.”

Row | Molecule | Dilution of E. coli Lysate for 50% Inhibition of 125I-TNFα Binding (ID50) TNFR-p55 (human TNFR-p55 [1]) | ID50 TNFR-p55 / ID50 TNFR-p75 (human TNFR-p55 [1]) | Dilution of E. coli Lysate for 50% Inhibition of 125I-TNFα Binding (ID50) TNFR-p75 (human TNFR-p75 [2]) | Decrease in Binding Affinity with Respect to Wildtype TNFR-p55 (human TNFR-p55 [3]) | Mutein Concentration for 50% Inhibition of 125I-TNFα Binding (IC50) TNFR-p55 (human TNFR-p55 [3]) | Decrease in Binding Affinity with Respect to Wildtype TNFR-p75 (human TNFR-p75 [4]) | Mutein Concentration for 50% Inhibition of 125I-TNFα Binding (IC50) TNFR-p75 (human TNFR-p75 [4])
1 | A145F: human TNFα mutein A145F | 240 fold | 0.04 | 6,000 fold | 33 fold | 500 ng/mL | 1.5 fold | 0.03 µg/mL
2 | A145R: human TNFα mutein A145R | < 100 fold | < 0.03 | 3,330 fold | 2,500 fold | 100,000 ng/ml | 0.8 fold | 0.035 µg/mL
3 | A145W: human TNFα mutein A145W | < 100 fold | < 1 | < 100 fold | 250 fold | 10,000 ng/ml | 2.5 fold | 0.1 µg/mL
4 | D143N-A145R: human TNFα mutein D143N-A145R (Example I) | < 100 fold | < 0.8 | 125 fold | > 2,500 fold | > 100,000 ng/ml | 6.7 fold | 0.3 µg/mL
5 | Y87T: human TNFα mutein Y87T | < 100 fold | 1 | < 100 fold |  |  |  | 
6 | Y115W: human TNFα mutein Y115W | 2,220 fold | 1 | 2,220 fold |  |  |  | 
7 | B1 | 2,500 fold | > 25 | < 100 fold |  |  |  | 
8 | B2 | 500 fold | > 5 | < 100 fold |  |  |  | 
9 | B3 | < 100 fold | < 1 | < 100 fold |  |  |  | 
10 | B4 | < 100 fold | 1 | < 100 fold |  |  |  | 
